Results on 1 compound are retold here after patent US20180243190A1, “ACTIVATORS OF NRF2-DEPENDENT PHOTOPROTECTION AND RELATED USES THEREOF” (THE ARIZONA BOARD OF REGENTS ON BEHALF OF THE UNIVERSITY OF …, priority 2015, published 2018).

Structures are written as SMILES.

The subject of data set [1] is primary human epidermal keratinocytes (HEKs). As to the kind of experiment: Oxidative Stress RT2 Profiler PCR Expression Array analysis. It counts as cell-based. Conditions: bixin 20 μM, 24 h. As to the method:
Total cellular RNA was prepared according to a standard procedure using the RNeasy kit (Qiagen, Valencia, Calif., USA). Reverse transcription was performed using the RT^2 First Strand kit (SuperArray, Frederick, Md., USA) and 1 μg total RNA. The Human Oxidative Stress RT^2Profiler™ PCR Expression Array (SuperArray) profiling the expression of 84 stress-related genes was employed as described before. Gene-specific product was normalized to ACTB and quantified using the comparative (ΔΔCt) Ct method following the ABI Prism 7000 sequence detection system user guide. Expression values were averaged across three independent array experiments followed by statistical analysis.

For data set [2], the system named is NRF2. As to the kind of experiment: Immunoblot analysis of NRF2 and NRF2 targets in HEKs. It counts as cell-based, human. Conditions: ≤20 μM, 24 h, exposure time ≤24 h at 20 μM. On the procedure:
Experiments were performed according to previously published procedures. Cells were harvested in sample buffer (50 mM Tris-HCl [pH 6.8], 2% sodium dodecyl sulfate (SDS), 10% glycerol, 100 mM dithiothreitol (DTT), and 0.1% bromophenol blue), boiled and sonicated. Total cell lysates were resolved by SDS-PAGE and subjected to immunoblot analyses with the indicated antibodies. For the ubiquitination assay, cells were cotransfected with expression vectors for NRF2 and HA-tagged ubiquitin (HA-Ub). Cells were left untreated or treated with either 5 μM sulforaphane (SF) or 40 μM bixin along with 10 μM MG132 for 4 h. Cells were harvested in buffer containing 2% SDS, 150 mM NaCl, 10 mM Tris-HCl (pH 8.0), and 1 mM DTT and boiled immediately. For immunoprecipitation, 1 μg of NRF2 antibody was incubated with the cell lysates at 4° C. overnight with protein A agarose beads (Invitrogen). Immunoprecipitated complexes were washed four times with RIPA buffer and eluted in sample buffer by boiling for 5 min. Samples were resolved by SDS-PAGE and immunoblotted with HA antibody. To measure the half-life of NRF2, HaCaT cells were either left untreated or treated with 5 μM bixin for 4 h, then 50 μM cycloheximide was added to block protein synthesis. […] The relative intensity of the bands was quantified using the ChemiDoc CRS gel documentation system and Quantity One software (BioRad).
For orientation: A western blot detects proteins with antibodies after separation by electrophoresis.

Data set [3] deals with NRF2 transcriptional activity. Nature of the data set: Dual luciferase NQO1-ARE reporter assay in HaCaT keratinocytes. It counts as cell-based, human. Conditions: 10-40 μM, 16 h. As to the method:
Transfection of cDNA was performed using Lipofectamine 3000 (Invitrogen) according to the manufacturer's instructions. Activation of NRF2 transcriptional activity was performed as previously published. Briefly, HaCaT cells were cotransfected with expression vectors for either KEAP1 wild type (KEAP1-WT) or KEAP1 with a mutation that generates a protein that contains a serine residue instead of a cysteine (KEAP1-C151S), along with NQO1-ARE firefly luciferase and Renilla luciferase reporters. At 24 h post-transfection, cells were left untreated or treated with SF (5 μM), As (5 μM), or bixin (40 μM) for 16 h. The cells were then lysed for analysis of the reporter gene activity using the Promega dual-luciferase reporter gene assay system.
A general note: In a reporter assay the amount or activity of a reporter protein is the signal.

For data set [4], the system named is HaCaT keratinocytes. As to the kind of experiment: GSH-Glo glutathione assay. It counts as cell-based, human. Conditions: bixin 0-40 μM, 24 h. As to the method:
Total intracellular glutathione in cultured cells was analyzed using the luminescent GSH-Glo glutathione assay (Promega). Cells were harvested and then counted using a Z2 Coulter counter, and GSH was determined per 10,000 viable cells. Data represent relative levels of glutathione normalized for cell number (treated versus solvent controls).

Data set [5] has as its system NRF2. Nature of the data set: Cell-based NRF2 ubiquitination assay. Conditions: HaCaT, bixin 40 μM or SF 5 μM with MG132 10 μM, 4 h. Set-up: species or system human. On the procedure:
In order to test if bixin-based NRF2 activation occurs through inhibition of KEAP1-mediated ubiquitination, a cell-based ubiquitination assay was performed in HaCaT cells cotransfected with expression vectors for NRF2 and HA-tagged ubiquitin (HA-Ub) (FIG. 3F). To this end, cells were either exposed to bixin (40 μM) or sulforaphane (SF; 5 μM, positive control) or left untreated, combined with proteasome inhibition (MG132; 10 μM, 4 h).
Experiments were performed according to previously published procedures. Cells were harvested in sample buffer (50 mM Tris-HCl [pH 6.8], 2% sodium dodecyl sulfate (SDS), 10% glycerol, 100 mM dithiothreitol (DTT), and 0.1% bromophenol blue), boiled and sonicated. Total cell lysates were resolved by SDS-PAGE and subjected to immunoblot analyses with the indicated antibodies. For the ubiquitination assay, cells were cotransfected with expression vectors for NRF2 and HA-tagged ubiquitin (HA-Ub). Cells were left untreated or treated with either 5 μM sulforaphane (SF) or 40 μM bixin along with 10 μM MG132 for 4 h. Cells were harvested in buffer containing 2% SDS, 150 mM NaCl, 10 mM Tris-HCl (pH 8.0), and 1 mM DTT and boiled immediately. […] The relative intensity of the bands was quantified using the ChemiDoc CRS gel documentation system and Quantity One software (BioRad).

Details of data set [6]: species or system SKH-1 mice. Conditions: mouse, in vivo, 200 mg/kg. The source says:
To explore the potential systemic photoprotective activity of bixin in a murine skin sunburn model, the feasibility of upregulating cutaneous NRF2 activity by systemic administration was first examined. It has been reported earlier that efficient cutaneous accumulation of dietary carotenoids requires prolonged nutritional supplementation over weeks and that pharmacokinetic parameters of cutaneous delivery of dietary carotinoids differ between humans and mice. Therefore, in order to circumvent the more complex pharmacokinetics associated with dietary supplementation, an intraperitoneal (i.p.) route for bixin systemic administration followed by examination of cutaneous NRF2 status was chosen. After i.p. injection of bixin (200 mg/kg) performed in Nrf2^+/+ and Nrf2^−/− mice, plasma was collected at 0, 1, 2, 4, 8, 16, 24, 48 and 72 h after injection followed by HPLC-photodiode array detection (FIG. 4A-C). […] Next, efficacy of various bixin treatment regimens (differing with regard to total dose and time after injection) for maximum activation of the NRF2 pathway in murine skin was determined (FIG. 4D).
Electrospray mass spectrometry of bixin [dissolved in tetrahydrofuran and diluted tenfold in acetonitrile/NH4OH (0.1 N); ESI-MS (negative ion mode) m/z 393.21 (M−1)^−] was performed using a Bruker Apex FT/ICR mass spectrometer. […]

The test system of data set [7] is NRF2. As to the kind of experiment: Immunoblot analysis in human primary melanocytes. It counts as cell-based. Conditions: 0-40 μM. As to the method:
Human cultured primary melanocytes (skin pigment producing cells) were treated with Bixin (0-40 μM) for up to 16 h. After 4 and 16 h, cells were harvested for immunoblot analysis testing for Nrf2 upregulation (Nrf2) GAPDH served as loading control.
Human cultured primary melanocytes (skin pigment producing cells) were treated with Bixin (0-40 μM) for 16 h. After 16 h, cells were harvested for immunoblot analysis testing for upregulation of cytoprotective Nrf2 targets including NQO1 and TrxR1. GAPDH served as loading control.

The test system of data set [8] is HaCaT keratinocytes.
Method: Photodynamic induction of intracellular oxidative stress and its suppression by bixin pretreatment was analyzed by flow cytometry using 2′,7′-dichlorodihydrofluorescein diacetate (DCFH-DA) as a sensitive non-fluorescent precursor dye according to a published standard procedure [14]. HaCaT keratinocytes were pretreated with bixin (1 or 24 h) and then exposed to singlet oxygen generated by dye-sensitization as described earlier [14, 44]. In brief, toluidine blue 0 (TB) photosensitization was achieved using a ‘Sylvania 15 W Cool White’ light tube delivering visible light at an irradiance of 4.29 mW/cm^2. The irradiance in the visible region (400-700 nm) was determined using a spectroradiometer, Model 754 from Optronic Laboratories (Orlando, Fla.). Cells received visible radiation at a distance of 50 mm from the source through the polystyrene lids of cell culture dishes. For ^1O2 exposure, cells were washed with PBS and immediately exposed to the combined action of visible light (0.3 J/cm^2) and TB (3.3 μM) in PBS. Following 5 min incubation in the dark after irradiation, cells were washed with PBS. Cells were then incubated for 60 min in the dark (37° C., 5% CO2) with culture medium containing DCFH-DA (5 μg/mL final concentration). Cells were then washed with PBS, harvested by trypsinization, resuspended in 300 μl PBS, and analyzed by flow cytometry.

Take `COC(=O)/C=C/C(C)=C\C=C\C(C)=C\C=C\C=C(C)\C=C\C=C(C)\C=C\C(=O)O` [bixin]: in data set [1], the “expression of NRF2 target genes (AKR1C2, GCLC, NQO1, SLC7A11, FTH1, TXNRD1, NCF2, SRXN)” value is given as “Pronounced upregulation”. In the data set with NRF2 [2], the “protein levels of NRF2 and NRF2 targets (NQO1, AKR1C2, HO-1, TrxR, GCLM, SRXN1, FTH1)” value was “increased protein levels”. Also, the NRF2 transcriptional activity result in data set [3] is listed as “dose-dependent induction”. Besides, in the data set with HaCaT keratinocytes [4], the “increase of total cellular glutathione” value is listed as around 50%. Further, the “NRF2-ubiquitination versus untreated control” value in the data set with NRF2 [5] was “dramatic reduction”. In data set [6], the “AUC, Nrf2+/+ versus Nrf2−/−” value is listed as “did not differ significantly”. In addition, in data set [6] (ip), the “peak plasma concentration (Cmax)” value is listed as “up to 11.3 μg/ml”. Moreover, the “Nrf2 upregulation in melanocytes” value in the data set with NRF2 [7] (4 and 16 h) is “efficient Nrf2 activator”. Also, the “upregulation of cytoprotective Nrf2 targets NQO1 and TrxR1 in melanocytes” value in the data set with NRF2 [7] (16 h) is listed as “efficient activator”. In the data set with HaCaT keratinocytes [8], the “DCF fluorescence after compound only (no dye sensitization)” value is recorded as “did not cause an increase”. Moreover, the “protection against 1O2-induced oxidative stress” value with HaCaT keratinocytes [8] (HaCaT, 20 μM, 1 h preincubation) is listed as “without protective effects”. Also, the “suppression of 1O2-induced increase in DCF fluorescence” value with HaCaT keratinocytes [8] (HaCaT, 20 μM, 24 h preincubation) is recorded as “efficiently suppressed”.
